This note sets out measurements from ChEMBL document CHEMBL4304785, “Recent advances of analogues of curcumin for treatment of cancer” (Eur J Med Chem, 2019).

Assay [1] is described as follows: Cytotoxicity against human WRO cells at 5 umol/L after 72 hrs by MTS assay relative to control. The class given is functional. (In general: Tetrazolium assays rely on reduction of a dye to a coloured formazan, in cell work by metabolically active cells.)
Assay [2] in a line: Cytotoxicity against human WRO cells at 10 uM after 72 hrs by MTS assay relative to control. The format is functional.
For assay [3], the system named is MCF7R. The experiment in a line: Cytotoxicity against human MCF7/R cells at 5 umol/L after 72 hrs by MTS assay relative to control. The format is functional.
The nature of assay [4]: Cytotoxicity against human WRO cells after 72 hrs in presence of curcumin by MTS assay relative to control. The class given is functional.
Assay [5] has as its system PC-3. Briefly: Cytotoxicity against human PC3 cells. The format is functional, cell-based.
The subject of assay [6] is DU-145. Briefly: Cytotoxicity against human DU145 cells. The class given is functional, cell-based.
In assay [7] the test system is DU-145. The experiment in a line: Potentiation of PTX-induced anticancer activity in human DU145 cells assessed as reduction in PTX IC50 (reference value: 13.5 nmol/L). The class given is functional, cell-based.
The test system of assay [8] is ASPC1. The experiment in a line: Antitumor activity against human Aspc-1 cells xenografted in athymic nude mouse assessed as reduction in tumor volume at 5 mg/kg after 35 days relative to control. The note with it: ASPC1, 840 h. The class given is functional.
Assay [9] addresses 72 kDa type IV collagenase (Homo sapiens) (UniProt P08253). Briefly: Inhibition of MMP2 (unknown origin).
Assay [10] deals with HT-144. Briefly: Cytotoxicity against human HT144 cells after 48 hrs by MTT assay. The note with it: HT-144, 48 h. The format is functional, cell-based.
The test system of assay [11] is NCI-H460. The experiment in a line: Cytotoxicity against human H460 cells after 48 hrs by MTT assay. The class given is functional, cell-based. The following applies: NCI-H460, 48 h.
Assay [12] in a line: Inhibition of cell invasion in human […] cells at 4 nmol/L after 24 hrs by crystal violet staining based transwell assay relative to control. The format is functional.
In assay [13] the test system is HT-144. The experiment in a line: Cytotoxicity against human HT144 cells after 24 hrs by MTT assay. The format is functional, cell-based. The note with it: HT-144, 24 h.
The subject of assay [14] is MIA PaCa-2. The experiment in a line: Cytotoxicity against human MIAPaCa2 cells after 48 hrs by MTT assay. The following applies: MIA PaCa-2, 48 h. The class given is functional, cell-based.
Assay [15] has as its system SK-OV-3. Briefly: Induction of apoptosis in human SKOV3 cells at 40 umol/L after 48 hrs by annexin-V-FITC/propidium iodide staining-based flow cytometric method relative to control. The class given is functional. In general terms: A flow cytometer gives signals particle by particle.
The subject of assay [16] is SK-OV-3. Briefly: Induction of apoptosis in human SKOV3 cells at 80 umol/L after 48 hrs by annexin-V-FITC/propidium iodide staining-based flow cytometric method relative to control. The format is functional.
In assay [17] the test system is MDA-MB-231. The experiment in a line: Increase in MMP3 level in human MDA-MB-231 cells after 24 hrs by ELISA. The class given is functional, cell-based. The note with it: MDA-MB-231, 24 h.
Assay [18] deals with HT-1080. The experiment in a line: Decrease in UPA expression in human HT1080 cells. The format is functional, cell-based.
The test system of assay [19] is SK-OV-3. Briefly: Induction of apoptosis in human SKOV3 cells at 20 umol/L after 48 hrs by annexin-V-FITC/propidium iodide staining-based flow cytometric method relative to control. The class given is functional.
In assay [20] the test system is MCF7. Briefly: Anti-invasive activity against human MCF7 cells at 100 umol/L after 12 hrs by giemsa staining based light microscopic analysis relative to control. The class given is functional.
Assay [21] is described as follows: Cytotoxicity against […] cells after 72 hrs by MTT assay. The class given is functional, cell-based. The following applies: B16, 72 h.
In assay [22] the test system is A-431. Briefly: Cytotoxicity against human A431 cells after 72 hrs by MTT assay. The class given is functional, cell-based. The note with it: A-431, 72 h.
The subject of assay [23] is SCC-25. Briefly: Cytotoxicity against human SCC25 cells after 72 hrs by MTT assay. The class given is functional, cell-based. The note with it: SCC-25, 72 h.
Assay [24] has as its system A-375. The experiment in a line: Cytotoxicity against human A375 cells after 72 hrs by MTT assay. The format is functional, cell-based. The note with it: A-375, 72 h.
The nature of assay [25]: Cytotoxicity against human BCC cells after 72 hrs by MTT assay. The format is functional, cell-based.
The subject of assay [26] is SK-OV-3. The experiment in a line: Cell cycle arrest in human SKOV3 cells assessed as accumulation at G1 phase at 15 umol/L after 24 hrs by propidium iodide staining-based assay (reference value: 58.1%). The format is functional.

SMILES strings stand for the structures. Bounds are passed on as bounds.

Sequence of 72 kDa type IV collagenase (Homo sapiens) (P08253 110-660 limits assumed): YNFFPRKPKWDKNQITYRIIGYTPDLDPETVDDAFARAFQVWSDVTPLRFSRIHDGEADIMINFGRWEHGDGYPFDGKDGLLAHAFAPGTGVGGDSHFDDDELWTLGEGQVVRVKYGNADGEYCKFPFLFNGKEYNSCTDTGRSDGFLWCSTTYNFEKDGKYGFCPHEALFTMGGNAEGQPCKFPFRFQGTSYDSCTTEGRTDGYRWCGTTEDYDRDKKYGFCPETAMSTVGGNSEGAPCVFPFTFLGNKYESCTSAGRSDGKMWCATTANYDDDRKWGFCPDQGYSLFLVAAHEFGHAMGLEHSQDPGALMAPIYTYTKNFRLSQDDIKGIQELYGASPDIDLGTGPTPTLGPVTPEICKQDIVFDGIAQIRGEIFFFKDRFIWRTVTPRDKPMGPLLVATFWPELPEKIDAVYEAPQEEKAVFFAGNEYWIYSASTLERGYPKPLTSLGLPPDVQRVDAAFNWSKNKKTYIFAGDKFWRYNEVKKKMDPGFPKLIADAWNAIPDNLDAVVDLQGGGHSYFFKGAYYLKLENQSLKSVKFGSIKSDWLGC

`COc1cc(/C=C/c2cc(/C=C/c3ccc(O)c(OC)c3)[nH]n2)ccc1O` [CURCUMIN PYRAZOLE]: the inhibition at 5 µM in assay [1] came out at 48.9%; in assay [3] it was 52.8%. The inhibition at 10 µM in [2] was determined as 48.2%. Further, the “inhibition (INH)” value in assay [4] is given as 41%.
As for `C/C1=C\CC(C)(C)/C=C/C(=O)/C(C)=C/CC1` [ZERUMBONE], the IC50 stood at 9.1 µM in [5], 6.9 µM in assay [6] and 0.0055 µM in assay [7].
`COc1cc(CNC(=O)CCCC/C=C/C(C)C)ccc1O` [CAPSAICIN]: the inhibition in vivo at 5 mg/kg in [8] came out at 73%.
With `CCCCC[C@H](O)CC(=O)CCc1ccc(O)c(OC)c1`, in assay [9], the INH was > 10 µmol/L.
As for `O=C(O)/C=C/c1ccccc1` [CINNAMIC ACID], the IC50 in [10] came to 1.07 µM; in [11] it was 2.1 µM; in assay [13], 2.4 µM; in assay [14] it was 1.33 µM. This compound gave an inhibition at 0.004 µM in assay [12] of 60%.
`COc1cc(/C=C/C(=O)CC(=O)/C=C/c2ccc(O)cc2)ccc1O`: the Activity in [15] is listed as 51.5%; in assay [16] it was 70.7%; in [19] it was 35.1%. Besides, the figures for the IC50 in [17] and in [18] were 9 µM and 7.5 µM, respectively.
With `O=C(CC(=O)c1ccccc1)c1ccccc1` [DIBENZOYLMETHANE], in [20], the Activity is listed as 84%.
Take `COc1cc(CCC(=O)CCCCc2ccccc2)ccc1O`: the half-maximal inhibitory concentration (IC50) in assay [21] stood at 40 µM; in assay [22], 13.3 µM; in assay [23], 18.7 µM; in [24], 23.8 µM; in assay [25] it was 11.3 µM.
For `O=C(/C=C/c1ccc(O)cc1)CC(=O)/C=C/c1ccc(O)cc1` [BISDEMETHOXYCURCUMIN], the half-inhibitory concentration (IC50) in [17] was found to be 11 µM; in assay [18] it was 7 µM. For the same compound, the Activity in [26] came out at 79.7%.

The inhibition is the change of the read-out against control, counted positive when it falls. A high value points to a strong effect. In general, IC50 refers to the midpoint of a concentration-inhibition curve. A word on the inhibition in vivo: it is how much of the control response was suppressed.
